Measurements: article PMC12678798, “Discovery of an allosteric binding site for anthraquinones at the human P2X4 receptor” (Nature Communications, 2025)

Target: T1, human wt P2X4 receptor (Homo sapiens, UniProt Q99571)
T1 construct: expressed in transfected cells
T1 sequence (Q99571 1-388): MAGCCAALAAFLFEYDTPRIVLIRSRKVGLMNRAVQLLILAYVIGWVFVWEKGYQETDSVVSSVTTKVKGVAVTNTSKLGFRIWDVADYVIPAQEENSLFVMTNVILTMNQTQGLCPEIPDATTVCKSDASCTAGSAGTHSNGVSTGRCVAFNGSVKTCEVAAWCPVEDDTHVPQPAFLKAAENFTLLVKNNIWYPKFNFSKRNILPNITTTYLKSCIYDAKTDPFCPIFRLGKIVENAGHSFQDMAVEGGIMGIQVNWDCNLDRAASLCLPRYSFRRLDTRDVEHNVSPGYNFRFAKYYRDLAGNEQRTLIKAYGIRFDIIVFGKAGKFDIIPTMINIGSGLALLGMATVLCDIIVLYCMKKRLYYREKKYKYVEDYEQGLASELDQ
Assay: ATP-induced calcium influx assay, human wt P2X4 receptor in 1321N1 astrocytoma cells
Format: cell-based
Settings: wt hP2X4; calcium influx

For `Nc1ncnc2c1ncn2[C@@H]1O[C@H](COP(=O)(O)OP(=O)(O)OP(=O)(O)O)[C@@H](O)[C@H]1O` [ATP, Adenosine 5′-triphosphate], the EC50 was 357 nM.
